Target: WT A/M2 protein (Influenza A virus, UniProt P0DOF5)
Experiment: biochemical
Conditions: read-out: % WT inhibition

Sequence of WT A/M2 protein (P0DOF5 whole entry): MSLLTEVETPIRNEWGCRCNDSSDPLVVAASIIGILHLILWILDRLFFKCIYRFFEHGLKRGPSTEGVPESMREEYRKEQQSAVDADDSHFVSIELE

**Q.** With Oc1ccc(NC23CC4CC(CC(C4)C2)C3)c(O)c1 [compound 5] as the compound, how does the inhibition at 100 µM read?
**A.** 64%

**Q.** Which inhibition at 100 µM does the source give for c1ccc(-c2nc(CNC34CC5CC(CC(C5)C3)C4)cs2)cc1 [26i] here?
**A.** 0%

Reference: PMC4829348 (Journal of medicinal chemistry, 2016)
